According to PMC5101207, “The Oxidosqualene Cyclase from the Oomycete Saprolegnia parasitica Synthesizes Lanosterol as a Single Product” (Frontiers in Microbiology, 2016):

Target: T1, SpLASA (Saprolegnia parasitica, UniProt A0A067BWL7)
T1 construct: gene SPRG_11783; full length, 805 residues (2415 bp amplicon from mycelium cDNA), C-terminal His6 tag (pET-DEST42), E. coli BL21 (DE3), about 91 kDa; not the truncated paralogue SpLASB (SPRG_17895, 472 residues)
T1 sequence (A0A067BWL7 1-805): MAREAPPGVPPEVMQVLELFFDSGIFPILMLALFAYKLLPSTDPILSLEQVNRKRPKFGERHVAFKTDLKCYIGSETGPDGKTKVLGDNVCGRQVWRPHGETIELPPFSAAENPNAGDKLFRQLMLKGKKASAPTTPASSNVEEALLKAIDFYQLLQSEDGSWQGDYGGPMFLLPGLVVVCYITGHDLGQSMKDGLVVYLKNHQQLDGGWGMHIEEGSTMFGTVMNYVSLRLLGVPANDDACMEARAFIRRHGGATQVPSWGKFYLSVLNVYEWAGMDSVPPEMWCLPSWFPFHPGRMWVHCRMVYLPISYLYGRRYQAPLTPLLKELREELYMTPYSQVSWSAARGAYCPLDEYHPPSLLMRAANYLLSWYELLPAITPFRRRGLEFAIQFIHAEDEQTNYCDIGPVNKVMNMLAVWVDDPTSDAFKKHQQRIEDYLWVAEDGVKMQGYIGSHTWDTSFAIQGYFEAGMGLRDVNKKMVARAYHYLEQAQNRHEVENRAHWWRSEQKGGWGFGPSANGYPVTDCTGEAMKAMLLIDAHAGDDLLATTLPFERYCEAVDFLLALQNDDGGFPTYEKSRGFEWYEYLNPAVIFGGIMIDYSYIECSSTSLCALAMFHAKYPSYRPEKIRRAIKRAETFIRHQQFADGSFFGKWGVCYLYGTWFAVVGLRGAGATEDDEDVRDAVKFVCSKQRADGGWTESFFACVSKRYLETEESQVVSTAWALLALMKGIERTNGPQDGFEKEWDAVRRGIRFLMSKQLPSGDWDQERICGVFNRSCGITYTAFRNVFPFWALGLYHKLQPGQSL
Assay: GC-MS of silylated sterols after incubation with purified enzyme
Format: biochemical
Conditions: 50 mM sodium phosphate pH 7.4, 25°C, 24 h; 10.7 μg substrate, 37.5-112.5 μg protein

Row | Compound | GC-MS of silylated sterols after incubation with purified enzyme
1 | CC(C)=CCC/C(C)=C/CC/C(C)=C/CC/C=C(\C)CC/C=C(\C)CC[C@@H]1OC1(C)C [2,3-oxidosqualene] | These experiments confirmed the specific conversion of OS into LA.
2 | CC(C)=CCC[C@@H](C)[C@H]1CC[C@@]2(C)C3=C(CC[C@]12C)[C@@]1(C)CC[C@H](O)C(C)(C)[C@@H]1CC3 [lanosterol] | the proportion of LA increased linearly with increasing protein concentration
